Experimental data published in patent US10645927B2, “Antimicrobial wipe” (Carefusion 2200, Inc., priority 2015, dated 2020).
Where a name gives a salt, the structure may show the parent alone. Marks after values point to notes of the source that are not given here.

System: Staphylococcus aureus ATCC 29213
Assay: Bactericidal activity by time kill method
Type: cell-based
Conditions: for Average Log: Baseline 7.123; for concentration required to deliver >3 log reduction in viable count: within 30 seconds of contact time
Description: Multiple surfactants in solution formulations were tested for use with the wipes. Effects of individual excipients such as phosphate buffer, polysorbate 20, nonoxynol-9, Cremophor® RH-40, dimethicone, and combinations of these products were investigated to determine the possibility of adverse effects on the antimicrobial efficacy of octenidine dihydrochloride. Bactericidal activities of octenidine dihydrochloride alone and in combinations with various excipients (Table 11) were tested by a time kill method using Staphylococcus aureus ATCC 29213 as test organism (Table 12).
Neutralizing effects of two similar surfactants, 0.5% Cremophor® RH40 and 0.5% polysorbate 20, on the bactericidal activity of octenidine dihydrochloride were tested using the Staphylococcus aureus ATCC 29213 as test organism (Table 13 and 14).

[1] = OCT 20 PPM, 0.5% Cremophor ® RH40, 30 seconds
[2] = OCT 20 PPM, 0.5% Polysorbate 20, 30 seconds
[3] = OCT 20 PPM, Aqueous, 30 seconds
[4] = OCT 100 PPM, 0.5% Cremophor ® RH40, 30 seconds
[5] = OCT 100 PPM, 0.5% Polysorbate 20, 30 seconds
[6] = OCT 100 PPM, Aqueous, 30 seconds
[7] = OCT 500 PPM, 0.5% Cremophor ® RH40, 30 seconds
[8] = OCT 500 PPM, 0.5% Polysorbate 20, 30 seconds
[9] = OCT 500 PPM, Aqueous, 30 seconds
[10] = OCT 4000 PPM, Full base formulation with Cremophor ® RH40
[11] = OCT 4000 PPM, Full base formulation with Polysorbate 20 (Table 13)

CCCCCCCCN=c1ccn(CCCCCCCCCCn2ccc(=NCCCCCCCC)cc2)cc1 [OCT, octenidine dihydrochloride]
Log Reduction (OCT 2 PPM in 0.1% Nonoxynol-9 in water, 30 seconds): 1.52 | Log Reduction (OCT 2 PPM in 0.25% Dimethicone in water, 30 seconds): 1.17 | Log Reduction (OCT 2 PPM in 1.5% Polysorbate 20 in water, 30 seconds): 0.30 | Log Reduction (OCT 2 PPM in Full base formulation with Nonoxynol-9 and Polysorbate 20 (Table 11), 30 seconds): 0.29 | Log Reduction (OCT 2 PPM in Full base formulation with Polysorbate 20 (Table 11), 30 seconds): 0.04 | Log Reduction (OCT 2 PPM in Phosphate Buffered Water, pH 6.0, 30 seconds): 1.39 | Log Reduction (OCT 2 PPM in Water, contact time 30 seconds): 3.41 | Log Reduction (OCT 20 PPM in 0.1% Nonoxynol-9 in water, 30 seconds): 2.94 | Log Reduction (OCT 20 PPM in 0.25% Dimethicone in water, 30 seconds): 1.41 | Log Reduction (OCT 20 PPM in 1.5% Polysorbate 20 in water, 30 seconds): 0.57 | Log Reduction (OCT 20 PPM in Full base formulation with Nonoxynol-9 and Polysorbate 20 (Table 11), 30 seconds): 0.58 | Log Reduction (OCT 20 PPM in Full base formulation with Polysorbate 20 (Table 11), 30 seconds): 0.35 | Log Reduction (OCT 20 PPM in Phosphate Buffered Water, pH 6.0, 30 seconds): 2.87 | Log Reduction (OCT 20 PPM in Water, contact time 30 seconds): 3.78 | Average Log Reduction [1]: 0.740 | Percent Reduction [1]: 81.808% | Average Log [1]: 6.383 | Average Log Reduction [2]: 0.795 | Percent Reduction [2]: 83.979% | Average Log [2]: 6.327 | Average Log Reduction [3]: 5.123 | Percent Reduction [3]: 99.999% | Average Log [3]: 2.000 | Log Reduction (OCT 100 PPM in 0.1% Nonoxynol-9 in water, 30 seconds): 4.69 | Log Reduction (OCT 100 PPM in 0.25% Dimethicone in water, 30 seconds): 1.67 | Log Reduction (OCT 100 PPM in 1.5% Polysorbate 20 in water, 30 seconds): 1.01 | Log Reduction (OCT 100 PPM in Full base formulation with Nonoxynol-9 and Polysorbate 20 (Table 11), 30 seconds): 0.60 | Log Reduction (OCT 100 PPM in Full base formulation with Polysorbate 20 (Table 11), 30 seconds): 0.49 | Log Reduction (OCT 100 PPM in Phosphate Buffered Water, pH 6.0, 30 seconds): 4.78 | Log Reduction (OCT 100 PPM in Water, contact time 30 seconds): 4.65 | Average Log Reduction [4]: 1.472 | Percent Reduction [4]: 96.624% | Average Log [4]: 5.651 | Average Log Reduction [5]: 1.205 | Percent Reduction [5]: 93.767% | Average Log [5]: 5.917 | Average Log Reduction [6]: 5.123 | Percent Reduction [6]: 99.999% | Average Log [6]: 2.000 | Log Reduction (OCT 500 PPM in 0.1% Nonoxynol-9 in water, 30 seconds): 5.12 | Log Reduction (OCT 500 PPM in 0.25% Dimethicone in water, 30 seconds): 2.12 | Log Reduction (OCT 500 PPM in 1.5% Polysorbate 20 in water, 30 seconds): 1.12 | Log Reduction (OCT 500 PPM in Full base formulation with Nonoxynol-9 and Polysorbate 20 (Table 11), 30 seconds): 1.40 | Log Reduction (OCT 500 PPM in Full base formulation with Polysorbate 20 (Table 11), 30 seconds): 0.76 | Log Reduction (OCT 500 PPM in Phosphate Buffered Water, pH 6.0, 30 seconds): 5.12 | Log Reduction (OCT 500 PPM in Water, contact time 30 seconds): 5.12 | Average Log Reduction [7]: 5.123 | Percent Reduction [7]: 99.999% | Average Log [7]: 2.000 | Average Log Reduction [8]: 3.080 | Percent Reduction [8]: 99.917% | Average Log [8]: 4.043 | Average Log Reduction [9]: 5.123 | Percent Reduction [9]: 99.999% | Average Log [9]: 2.000 | Log Reduction (OCT 1000 PPM in Full base formulation with Nonoxynol-9 and Polysorbate 20, total kill, value is limit of detection): ≥ 3.94* | Log Reduction (OCT 2000 PPM in Full base formulation with Nonoxynol-9 and Polysorbate 20, total kill, value is limit of detection): ≥ 4.14* | Log Reduction (OCT 4000 PPM in Full base formulation with Nonoxynol-9 and Polysorbate 20, total kill, value is limit of detection): ≥ 4.14* | Average Log Reduction [10]: 4.123 | Percent Reduction [10]: 99.992% | Average Log [10]: 3.000 | Average Log Reduction [11]: 4.123 | Percent Reduction [11]: 99.992% | Average Log [11]: 3.000 | percent reduction in viable count at 2 ppm (Staphylococcus aureus, ATCC29213, octenidine dihydrochloride alone, 2 PPM, contact time of 30 seconds): > 99.9% | concentration required to show 99.9% reduction in viable count (dissolved in pH 6.0 phosphate buffered water): > 20 PPM | microbicidal activity in the full base formulation (higher than 1000 PPM of octenidine dihydrochloride, full base formulation of Table 11): rapidly microbicidal | concentration required for 99.9% reduction relative to the concentration in water (pH 6.0 phosphate buffered water vs water): > 10 times | concentration required to deliver >3 log reduction in viable count (with 0.5% Cremophor® RH40): 500 PPM | concentration required to deliver >3 log reduction in viable count (with 0.5% polysorbate 20): 500 PPM
